{"source": "patent US10028482B2", "about": "“Disinfecting and deodorizing compositions and methods with novel polymeric binding system” (priority 2014, dated 2018)", "key": {"[1]": {"assay": "Retention of chlorine in air dried coatings on hard surface substrate (iodometric titration)", "type": "physicochemical", "conditions": "Formica coupons", "description": "The purpose of this experiment was to measure the effect of binder plus SHA on retention of chlorine in air dried coatings of water-based N-halamine formulations on a hard surface substrate. The procedure used one gram of MCDMH with or without 0.2 grams of hydroxyethylcellulose binder and 0.1 grams of SHA dissolved in 100 ml of water as the surface treatments. Solutions of MCDMH, MCDMH plus binder and SHA containing equivalent amounts of oxidative chlorine were applied to 9 cm^2 of hard surface substrate (Formica coupons), and allowed to dry at room temperature in a chemical fume hood. Determinations of chlorine levels per cm^2 were made on coupons sampled after 4 hours, 24 hours, 48 hours, and 96 hours. The chlorine remaining on each surface was measured by iodometric titration of solutions obtained after soaking of test samples in deionized water for 1 hour at room temperature."}, "[2]": {"assay": "Retention of chlorine in air dried coatings on soft surface substrates (iodometric titration)", "type": "physicochemical", "description": "The purpose of this experiment was to measure the beneficial effect of binder plus SHA on retention of chlorine in air dried coatings of N-halamine formulations on a soft surface substrate. Solutions of MCDMH, MCDMH plus hydroxyethylcellulose binder plus SHA, each containing equivalent amounts of oxidative Cl were applied to 9 cm^2 of soft surface substrate (cotton fabrics or paper), and allowed to air dry at room temperature in a chemical fume hood. Determinations of chlorine per cm^2 were made on fabrics sampled after 4 hours, 24 hours, 48 hours, and 96 hours. The remaining chlorine was measured by iodometric titration after soaking of test samples in deionized water for 1 hour at room temperature."}}}
{"compound": "CC1(C)NC(=O)N(Cl)C1=O", "note": "[MCDMH]", "values": [{"measurement": "Chlorine Content", "setting": "[1]; 4 h", "value": "3.61 ×10^18 Cl/cm^2"}, {"measurement": "Chlorine Content", "setting": "[1]; 24 h", "value": "3.25 ×10^18 Cl/cm^2"}, {"measurement": "Chlorine Content", "setting": "[1]; 48 h", "value": "3.01 ×10^18 Cl/cm^2"}, {"measurement": "Chlorine Content", "setting": "[1]; 96 h", "value": "2.75 ×10^18 Cl/cm^2"}, {"measurement": "Chlorine Content", "setting": "[2]; Cotton, 4 h", "value": "2.41 ×10^18 Cl/cm^2"}, {"measurement": "Chlorine Content", "setting": "[2]; Cotton, 24 h", "value": "2.04 ×10^18 Cl/cm^2"}, {"measurement": "Chlorine Content", "setting": "[2]; Cotton, 48 h", "value": "1.56 ×10^18 Cl/cm^2"}, {"measurement": "Chlorine Content", "setting": "[2]; Cotton, 96 h", "value": "0.89 ×10^18 Cl/cm^2"}, {"measurement": "Chlorine Content", "setting": "[2]; Paper, 4 h", "value": "2.74 ×10^18 Cl/cm^2"}, {"measurement": "Chlorine Content", "setting": "[2]; Paper, 24 h", "value": "2.12 ×10^18 Cl/cm^2"}, {"measurement": "Chlorine Content", "setting": "[2]; Paper, 48 h", "value": "1.87 ×10^18 Cl/cm^2"}, {"measurement": "Chlorine Content", "setting": "[2]; Paper, 96 h", "value": "1.04 ×10^18 Cl/cm^2"}]}
